Measurements: patent publication EP4434982A1, “(S)-2-(2-METHYLAZETIDIN-1-YL)PYRIMIDINE DERIVATIVE AND PHARMACEUTICAL COMPOSITION COMPRISING SAME” (LG Chem, Ltd., priority 2021, dated 2023)

Each compound was assayed against T1, Ketohexokinase (KHK) (Homo sapiens, UniProt P50053) (assay: measurement of activity in vitro of ketohexokinase inhibitor (Transcreener ADP2 TR-FRET Red Assay, ADP produced)). Settings: KHK pre-reacted with inhibitor 30 minutes, then substrate (ATP, fructose) 15 minutes; Ki by Morrison equation.
T1 construct: His tag; made in house; host or cells: E. coli
T1 sequence (P50053 1-298): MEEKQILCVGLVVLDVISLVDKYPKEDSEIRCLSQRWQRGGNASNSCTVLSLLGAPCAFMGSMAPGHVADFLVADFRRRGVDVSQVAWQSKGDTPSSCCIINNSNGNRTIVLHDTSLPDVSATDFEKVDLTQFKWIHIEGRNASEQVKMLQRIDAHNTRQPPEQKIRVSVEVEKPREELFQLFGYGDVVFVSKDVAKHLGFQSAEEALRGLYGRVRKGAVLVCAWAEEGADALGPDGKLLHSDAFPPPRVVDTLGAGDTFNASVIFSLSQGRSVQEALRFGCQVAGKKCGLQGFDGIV
Assay type: biochemical
Procedure: Ketohexokinase (KHK) was expressed in E. Coli and purified using His tag. In order to measure the activity of the purified KHK, Transcreener ADP2 TR-FRET Red Assay kit of BellBrook Labs was used. A method of measuring the amount of ADP produced was used using TR-FRET after reacting a solution including a suitable concentration of KHK protein and ATP, and fructose for 15 minutes. In order to see the activity of a ketohexokinase (KHK) inhibitor, ketohexokinase (KHK) and a suitable concentration of an inhibitor were reacted first for 30 minutes, and then, reacted with a solution including the substrate of ketohexokinase (KHK) for 15 minutes. Then, reaction for TR-FRET was performed for 1 hour, and fluorescence was measured using Envision equipment of PerkinElmer. According to the optimization procedure of TR-FRET published by BellBrook Lab, the set value of the Envision equipment was determined.
The result values by concentration of the ketohexokinase (KHK) inhibitor were determined as the ratio of a wavelength of 665 nm and a wavelength of 615nm. The 665/615 ratio value by concentration of each inhibitor was converted to ADP concentration based on ADP standard curve, and inhibition activity Ki value was obtained using Morrison equation by statistical software (Prizm). Meanwhile, the Ki value is a value representing the binding affinity of the inhibitor and an enzyme, and a lower value means better inhibitory activity.
With C[C@H]1CCN1c1nc(N2CC(OCC(=O)N3CCNCC3)C2)c2c(n1)C(F)(F)CC2 [Example 3, (S)-2-((1-(7,7-difluoro-2-(2-methylazetidin-1-yl)-6,7-dihydro-5H-cyclopenta[d]pyrimidin-4-yl)azetidin-3-yl)oxy)-1-(piperazin-1-yl)ethan-1-one] the Ki was ≤ 10 nM.
C[C@H]1CCN1c1nc(N2C[C@@H]3[C@@H](CC(=O)N4CCNCC4)[C@@H]3C2)c2c(n1)C(F)(F)CC2 [Example 18, 2-((1R,5S,6R)-3-(7,7-difluoro-2-((S)-2-methylazetidin-1-yl)-6,7-dihydro-5H-cyclopenta[d]pyrimidin-4-yl)-3-azabicyclo[3.1.0]hexan-6-yl)-1-(piperazin-1-yl)ethan-1-one] was tested, and the Ki was ≤ 10 nM.
Compound C[C@H]1CCN1c1nc(N2C[C@@H](OCC(=O)N3CCNCC3)[C@@H]2C)c2c(n1)C(F)(F)CC2 [Example 5, 2-(((2S,3R)-1-(7,7-difluoro-2-((S)-2-methylazetidin-1-yl)-6,7-dihydro-5H-cyclopenta[d]pyrimidin-4-yl)-2-methylazetidin-3-yl)oxy)-1-(piperazin-1-yl)ethan-1-one] has a Ki of 10 to 100 nM.
C[C@H]1CCN1c1nc(N2CCN(CC(=O)N3CCNCC3)C(=O)C2)c2c(n1)C(F)(F)CC2 [Example 16, (S)-4-(7,7-difluoro-2-(2-methylazetidin-1-yl)-6,7-dihydro-5H-cyclopenta[d]pyrimidin-4-yl)-1-(2-oxo-2-(piperazin-1-yl)ethyl)piperazin-2-one] was tested, and the Ki was ≤ 10 nM.
For C[C@H]1CCN1c1nc(-c2cc(F)c(OCC(=O)N3CCNCC3)c(F)c2)c2c(n1)C(F)(F)CC2 [Example 34], the Ki was ≤ 10 nM.
With C[C@H]1CCN1c1nc(N2CCC(OCC(=O)N3CCNCC3)CC2)c2c(n1)C(F)(F)CC2 [Example 10, (S)-2-((1-(7,7-difluoro-2-(2-methylazetidin-1-yl)-6,7-dihydro-5H-cyclopenta[d]pyrimidin-4-yl)piperidin-4-yl)oxy)-1-(piperazin-1-yl)ethan-1-one] the Ki was ≤ 10 nM.
With C[C@H]1CCN1c1nc(N2CCN(CC(=O)N3CCNCC3)CC2)cc(C(F)(F)F)n1 [Example 11, (S)-2-(4-(2-(2-methylazetidin-1-yl)-6-(trifluoromethyl)pyrimidin-4-yl)piperazin-1-yl)-1-(piperazin-1-yl)ethan-1-one] the Ki was ≤ 10 nM.
In the case of C[C@H]1CCN1c1nc(N2CC[C@H](OCC(=O)N3CCNCC3)C2)c2c(n1)C(F)(F)CC2 [Example 7, 2-(((2S,3R)-1-(7,7-difluoro-2-((S)-2-methylazetidin-1-yl)-6,7-dihydro-5H-cyclopenta[d]pyrimidin-4-yl)pyrrolidin-3-yl)oxy)-1-(piperazin-1-yl)ethan-1-one], the Ki is reported as ≤ 10 nM.
